PubChem BioAssay (NCI)
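Method: 48-hour compound exposure of cells in 96-well plates, five concentrations, linear interpolation of endpoints. TGI marks complete inhibition of growth.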

What was measured:
Assay in all cases: NCI tumour cell line growth inhibition, 48 h
786-0 renal = tested on: 786-0 renal
A498 renal = tested on: A498 renal
A549 NSCLC = tested on: A549 NSCLC
ACHN renal = tested on: ACHN renal
BT-549 breast = tested on: BT-549 breast
CAKI-1 renal = tested on: CAKI-1 renal
CCRF-CEM leukemia = tested on: CCRF-CEM leukemia
COLO 205 colon = tested on: COLO 205 colon
DU-145 prostate = tested on: DU-145 prostate
EKVX NSCLC = tested on: EKVX NSCLC
HCC-2998 colon = tested on: HCC-2998 colon
HCT-116 colon = tested on: HCT-116 colon
HCT-15 colon = tested on: HCT-15 colon
HL-60(TB) leukemia = tested on: HL-60(TB) leukemia
HOP-62 NSCLC = tested on: HOP-62 NSCLC
HOP-92 NSCLC = tested on: HOP-92 NSCLC
HS 578T breast = tested on: HS 578T breast
HT29 colon = tested on: HT29 colon
IGROV1 ovarian = tested on: IGROV1 ovarian
K-562 leukemia = tested on: K-562 leukemia
KM12 colon = tested on: KM12 colon
LOX IMVI melanoma = tested on: LOX IMVI melanoma
M14 melanoma = tested on: M14 melanoma
MALME-3M melanoma = tested on: MALME-3M melanoma
MCF7 breast = tested on: MCF7 breast
MDA-N = tested on: MDA-N
MOLT-4 leukemia = tested on: MOLT-4 leukemia
NCI-H226 lung = tested on: NCI-H226 lung
NCI-H23 lung = tested on: NCI-H23 lung
NCI-H460 lung = tested on: NCI-H460 lung
NCI-H522 lung = tested on: NCI-H522 lung
NCI/ADR-RES ovarian = tested on: NCI/ADR-RES ovarian
OVCAR-3 ovarian = tested on: OVCAR-3 ovarian
OVCAR-4 ovarian = tested on: OVCAR-4 ovarian
OVCAR-5 ovarian = tested on: OVCAR-5 ovarian
OVCAR-8 ovarian = tested on: OVCAR-8 ovarian
PC-3 prostate = tested on: PC-3 prostate
RPMI-8226 leukemia = tested on: RPMI-8226 leukemia
RXF 393 renal = tested on: RXF 393 renal
SF-268 CNS = tested on: SF-268 CNS
SF-295 CNS = tested on: SF-295 CNS
SF-539 CNS = tested on: SF-539 CNS
SK-MEL-2 melanoma = tested on: SK-MEL-2 melanoma
SK-MEL-28 melanoma = tested on: SK-MEL-28 melanoma
SK-MEL-5 melanoma = tested on: SK-MEL-5 melanoma
SK-OV-3 ovarian = tested on: SK-OV-3 ovarian
SN12C renal = tested on: SN12C renal
SNB-19 CNS = tested on: SNB-19 CNS
SNB-75 CNS = tested on: SNB-75 CNS
SR leukemia = tested on: SR leukemia
SW-620 colon = tested on: SW-620 colon
T-47D breast = tested on: T-47D breast
TK-10 renal = tested on: TK-10 renal
U251 CNS = tested on: U251 CNS
UACC-257 melanoma = tested on: UACC-257 melanoma
UO-31 renal = tested on: UO-31 renal
MDA-MB-231 breast = tested on: MDA-MB-231 breast
MDA-MB-435 = tested on: MDA-MB-435
UACC-62 melanoma = tested on: UACC-62 melanoma

CC[N+]1(C)CCC(O)(c2ccc(Cl)c(Cl)c2)C(C(=O)c2ccc(Cl)c(Cl)c2)C1 (configuration not stated)
TGI (786-0 renal): > 10 µM | TGI (A498 renal): > 10 µM | TGI (A549 NSCLC): > 10 µM | TGI (ACHN renal): > 10 µM | TGI (BT-549 breast): > 10 µM | TGI (CAKI-1 renal): > 10 µM | TGI (CCRF-CEM leukemia): 5.98 µM | TGI (COLO 205 colon): > 10 µM | TGI (DU-145 prostate): > 10 µM | TGI (EKVX NSCLC): > 10 µM | TGI (HCC-2998 colon): > 10 µM | TGI (HCT-116 colon): > 10 µM | TGI (HCT-15 colon): > 10 µM | TGI (HL-60(TB) leukemia): > 10 µM | TGI (HOP-62 NSCLC): > 10 µM | TGI (HOP-92 NSCLC): > 10 µM | TGI (HS 578T breast): > 10 µM | TGI (HT29 colon): > 10 µM | TGI (IGROV1 ovarian): > 10 µM | TGI (K-562 leukemia): > 10 µM | TGI (KM12 colon): > 10 µM | TGI (LOX IMVI melanoma): > 10 µM | TGI (M14 melanoma): > 10 µM | TGI (MALME-3M melanoma): > 10 µM | TGI (MCF7 breast): > 10 µM | TGI (MDA-N): > 10 µM | TGI (MOLT-4 leukemia): > 10 µM | TGI (NCI-H226 lung): > 10 µM | TGI (NCI-H23 lung): > 10 µM | TGI (NCI-H460 lung): > 10 µM | TGI (NCI-H522 lung): 7.44 µM | TGI (NCI/ADR-RES ovarian): > 10 µM | TGI (OVCAR-3 ovarian): > 10 µM | TGI (OVCAR-4 ovarian): > 10 µM | TGI (OVCAR-5 ovarian): > 10 µM | TGI (OVCAR-8 ovarian): > 10 µM | TGI (PC-3 prostate): > 10 µM | TGI (RPMI-8226 leukemia): > 10 µM | TGI (RXF 393 renal): > 10 µM | TGI (SF-268 CNS): > 10 µM | TGI (SF-295 CNS): > 10 µM | TGI (SF-539 CNS): > 10 µM | TGI (SK-MEL-2 melanoma): > 10 µM | TGI (SK-MEL-28 melanoma): > 10 µM | TGI (SK-MEL-5 melanoma): > 10 µM | TGI (SK-OV-3 ovarian): > 10 µM | TGI (SN12C renal): > 10 µM | TGI (SNB-19 CNS): > 10 µM | TGI (SNB-75 CNS): > 10 µM | TGI (SR leukemia): > 10 µM | TGI (SW-620 colon): > 10 µM | TGI (T-47D breast): > 10 µM | TGI (TK-10 renal): > 10 µM | TGI (U251 CNS): > 10 µM | TGI (UACC-257 melanoma): > 10 µM | TGI (UO-31 renal): > 10 µM

CCOC(=O)c1cc2c(C(=O)c3ccc([N+](=O)[O-])cc3)c(C(C)=O)ccc2[nH]1
TGI (786-0 renal): > 100 µM | TGI (A498 renal): > 100 µM | TGI (A549 NSCLC): > 100 µM | TGI (ACHN renal): > 100 µM | TGI (BT-549 breast): > 100 µM | TGI (CAKI-1 renal): > 100 µM | TGI (CCRF-CEM leukemia): > 100 µM | TGI (COLO 205 colon): > 100 µM | TGI (DU-145 prostate): > 100 µM | TGI (EKVX NSCLC): > 100 µM | TGI (HCC-2998 colon): > 100 µM | TGI (HCT-116 colon): > 100 µM | TGI (HCT-15 colon): > 100 µM | TGI (HL-60(TB) leukemia): > 100 µM | TGI (HOP-62 NSCLC): 18.4 µM | TGI (HOP-92 NSCLC): 44.6 µM | TGI (HS 578T breast): 50.1 µM | TGI (HT29 colon): > 100 µM | TGI (IGROV1 ovarian): > 100 µM | TGI (K-562 leukemia): > 100 µM | TGI (KM12 colon): > 100 µM | TGI (LOX IMVI melanoma): > 100 µM | TGI (M14 melanoma): > 100 µM | TGI (MCF7 breast): > 100 µM | TGI (MDA-MB-231 breast): 53.4 µM | TGI (MDA-MB-435): > 100 µM | TGI (MDA-N): > 100 µM | TGI (MOLT-4 leukemia): > 100 µM | TGI (NCI-H226 lung): > 100 µM | TGI (NCI-H23 lung): > 100 µM | TGI (NCI-H460 lung): > 100 µM | TGI (NCI-H522 lung): 36.5 µM | TGI (OVCAR-3 ovarian): > 100 µM | TGI (OVCAR-4 ovarian): > 100 µM | TGI (OVCAR-5 ovarian): > 100 µM | TGI (PC-3 prostate): > 100 µM | TGI (RPMI-8226 leukemia): > 100 µM | TGI (RXF 393 renal): 80.5 µM | TGI (SF-268 CNS): 38.9 µM | TGI (SF-295 CNS): > 100 µM | TGI (SF-539 CNS): > 100 µM | TGI (SK-MEL-2 melanoma): > 100 µM | TGI (SK-MEL-28 melanoma): > 100 µM | TGI (SK-MEL-5 melanoma): > 100 µM | TGI (SK-OV-3 ovarian): 51.3 µM | TGI (SN12C renal): > 100 µM | TGI (SNB-19 CNS): 87.9 µM | TGI (SNB-75 CNS): 32.9 µM | TGI (SR leukemia): > 100 µM | TGI (SW-620 colon): > 100 µM | TGI (T-47D breast): > 100 µM | TGI (TK-10 renal): > 100 µM | TGI (U251 CNS): 32.3 µM | TGI (UACC-257 melanoma): > 100 µM | TGI (UACC-62 melanoma): > 100 µM | TGI (UO-31 renal): > 100 µM
